Test results: patent publication US10968192B2, “Crystalline solid forms of N-(1-((2-(dimethylamino)ethyl)amino)-2-methyl-1-oxopropan-2-yl)-4-(4-(2-methyl-5-((2S,3R,4R,5S,6R)-3,4,5-trihydroxy-6-(methylthio)tetrahydro-2H-pyran-2-yl)benzyl)phenyl)butanamide and methods of their synthesis” (Lexicon Pharmaceuticals, Inc., priority 2018, dated 2021)
Each block holds one molecule with its values, some of them ahead of it.

Key:
[1] = target: T1, sodium glucose co-transporter type 1 (SGLT1) (Homo sapiens, UniProt P13866); conditions: qualitative statement; see U.S. Pat. No. 9,200,025, Examples 6.39, 6.40; cited from earlier work
T1 sequence (P13866 1-664): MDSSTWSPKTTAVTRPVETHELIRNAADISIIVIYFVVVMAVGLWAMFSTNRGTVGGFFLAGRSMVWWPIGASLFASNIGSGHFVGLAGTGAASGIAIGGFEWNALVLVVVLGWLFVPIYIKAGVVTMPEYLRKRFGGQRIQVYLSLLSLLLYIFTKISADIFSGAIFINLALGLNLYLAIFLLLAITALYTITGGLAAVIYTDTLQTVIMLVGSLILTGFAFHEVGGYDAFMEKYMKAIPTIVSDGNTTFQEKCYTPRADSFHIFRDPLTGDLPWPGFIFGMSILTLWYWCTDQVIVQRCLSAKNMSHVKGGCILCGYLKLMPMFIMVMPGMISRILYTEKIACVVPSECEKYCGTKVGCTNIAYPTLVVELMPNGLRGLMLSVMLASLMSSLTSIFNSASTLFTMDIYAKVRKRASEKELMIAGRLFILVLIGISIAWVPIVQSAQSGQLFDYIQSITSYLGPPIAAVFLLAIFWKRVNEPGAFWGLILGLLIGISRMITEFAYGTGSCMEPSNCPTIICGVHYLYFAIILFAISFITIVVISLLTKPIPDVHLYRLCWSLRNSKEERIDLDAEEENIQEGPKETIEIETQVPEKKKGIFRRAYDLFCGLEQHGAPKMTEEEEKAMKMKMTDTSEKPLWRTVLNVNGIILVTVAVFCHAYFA

[2] = Polymorphism studies of the L-proline co-crystal: solid-form stability upon drying; type: physicochemical
Text: Significant further research directed at discovering useful and stable solid forms of the compound finally led to the discovery of a few crystalline forms of the free base, solvates, and co-crystals. […] Although polymorphism studies led to the identification of eleven different Raman spectroscopic classes of the co-crystal, three were dominated by amorphous material and most were unstable (i.e., lose their crystallinity or convert to other forms) upon drying. […] The suspension was filtered and the wet-cake was dried. […] (DSC peak 147° C.). The solid was used as seeds to prepare 0.7 g more Form II polymorph of the L-proline cocrystal in a similar fashion.

Structure (SMILES): CS[C@H]1O[C@@H](c2ccc(C)c(Cc3ccc(CCCC(=O)NC(C)(C)C(=O)NCCN(C)C)cc3)c2)[C@H](O)[C@@H](O)[C@@H]1O [Compound I, N-(1-((2-(dimethylamino)ethyl)-amino)-2-methyl-1-oxopropan-2-yl)-4-(4-(2-methyl-5-((2S,3R,4R,5S,6R)-3,4,5-trihydroxy-6-(methylthio)tetrahydro-2H-pyran-2-yl)benzyl)phenyl)butanamide]
inhibition of sodium glucose co-transporter type 1 (SGLT1) [1]: potent inhibitor

solid-form conversion upon drying ([2]; wet cake from ethanol, dried at 50° C.): converted to Form II upon drying
Structure (SMILES): CS[C@H]1O[C@@H](c2ccc(C)c(Cc3ccc(CCCC(=O)NC(C)(C)C(=O)NCCN(C)C)cc3)c2)[C@H](O)[C@@H](O)[C@@H]1O [Form I, N-(1-((2-(dimethylamino)ethyl)-amino)-2-methyl-1-oxopropan-2-yl)-4-(4-(2-methyl-5-((2S,3R,4R,5S,6R)-3,4,5-trihydroxy-6-(methylthio)tetrahydro-2H-pyran-2-yl)benzyl)phenyl)butanamide L-proline]

Structure (SMILES): CS[C@H]1O[C@@H](c2ccc(C)c(Cc3ccc(CCCC(=O)NC(C)(C)C(=O)NCCN(C)C)cc3)c2)[C@H](O)[C@@H](O)[C@@H]1O [Form II, N-(1-((2-(dimethylamino)ethyl)-amino)-2-methyl-1-oxopropan-2-yl)-4-(4-(2-methyl-5-((2S,3R,4R,5S,6R)-3,4,5-trihydroxy-6-(methylthio)tetrahydro-2H-pyran-2-yl)benzyl)phenyl)butanamide L-proline]
solid-form stability (retains crystallinity / does not convert to other forms upon drying) ([2]; L-proline co-crystal forms, polymorphism studies): stable enough to be useful in pharmaceutical formulations
